Here are results for 5 molecules from EPA's ToxRefDB 2.

Data set [1] deals with mouse. Conditions: Carcinogenicity; b6c3f1; Oral; Feed; dose end: 78 week; group: systemic; systemic / pathology microscopic / liver / carcinoma + systemic / in life observation / body weight / body weight + systemic / in life ….
Data set [2] relates to rat. Conditions: Carcinogenicity, other, Oral, Feed, dose end: 78 week, group: systemic.
Data set [3] concerns rat. To be noted: Developmental neurotoxicity study; sprague dawley; Oral; Gavage/Intubation; dose end: 140 PND; group: cannot be grouped; systemic / in life observation / body weight / body weight + developmental / offspring survival late / [other] / [other] + systemic / in ….
Data set [4] relates to mouse. Conditions: Carcinogenicity, b6c3f1, Oral, Feed, dose end: 101 week, group: systemic.
In data set [5] the test system is rat. To be noted: Carcinogenicity, fischer, Oral, Feed, dose end: 101 week, group: systemic.
In data set [6] the test system is dog. Conditions: Subchronic oral toxicity in nonrodent, beagle, Feed, dose end: 90 day, group: systemic, systemic / hematology / erythrocyte (rbc) count differential / erythrocyte (rbc) + systemic / hematology / mean corpuscular (cell) volume (….
The subject of data set [7] is dog. To be noted: Chronic toxicity, beagle, Oral, Feed, dose end: 52 week, group: systemic.
For data set [8], the system named is dog. Conditions: Subchronic oral toxicity in nonrodent, beagle, Feed, dose end: 13 week, group: systemic, systemic / hematology / erythrocyte (rbc) count differential / erythrocyte (rbc) + systemic / in life observation / body weight / body ….
In data set [9] the test system is rat. To be noted: Subchronic oral toxicity in rodents, sprague dawley, Feed, dose end: 13 week, group: systemic, systemic / clinical chemistry / thyroxine (t4) / thyroxine (t4).
For data set [10], the system named is rat. To be noted: Combined chronic toxicity/carcinogenicity, sprague dawley, Oral, Feed, dose end: 2 year, group: systemic.
The test system of data set [11] is rat. Conditions: Prenatal developmental toxicity study, sprague dawley, Oral, Gavage/Intubation, dose end: 15 GD.
For data set [12], the system named is rat. To be noted: Prenatal developmental toxicity study, sprague dawley, Oral, Gavage/Intubation, dose end: 15 GD. The source holds these as a separate data set.
The subject of data set [13] is mouse. Conditions: Subchronic oral toxicity in rodents, cd1, Feed, dose end: 90 day, group: systemic, systemic / clinical chemistry / aminopyrine-n-demethylase / aminopyrine-n-demethylase + systemic / clinical chemistry / p-nitroanisole ….
For data set [14], the system named is rat. Conditions: Developmental neurotoxicity range-finding study; sprague dawley; Oral; Feed; dose end: 21 PND; group: cannot be grouped; systemic / in life observation / body weight / offspring (pup) weight.
The test system of data set [15] is rat. Conditions: Subchronic oral toxicity in rodents, other, Feed, dose end: 90 day, group: systemic.
The mark [16] stands for this setting: systemic / pathology microscopic / liver / necrosis.
[17] abbreviates: systemic / pathology microscopic / liver / necrosis + systemic / pathology microscopic / thyroid gland / adenoma + systemic / in life ….
The mark [18] stands for this setting: systemic / in life observation / body weight / body weight.
The mark [19] stands for this setting: systemic / in life observation / body weight / body weight + systemic / pathology microscopic / blood vessel / hemangiosarcoma + systemic / ….
The mark [20] stands for this setting: systemic / in life observation / body weight / body weight + systemic / pathology microscopic / liver / neoplastic nodule + systemic / ….
Setting [21] is: systemic / in life observation / body weight / body weight gain.
Where [22] appears, read: systemic / in life observation / body weight / body weight gain + systemic / clinical chemistry / cholesterol / cholesterol + systemic / ….
Setting [23] is: total + systemic / clinical chemistry / thyroid stimulating hormone (….
Setting [24] is: systemic / clinical chemistry / thyroid stimulating hormone (thyrotropin) (tsh) / thyroid stimulating hormone (=thyrotropin) (tsh) + ….
The mark [25] stands for this setting: group: developmental, developmental / developmental malformation / bone / absent + developmental / developmental malformation / bone / bent + developmental / ….
Where [26] appears, read: group: maternal, systemic / in life observation / body weight / body weight + systemic / in life observation / body weight / body weight gain + systemic / in….
[27] abbreviates: group: developmental, developmental / developmental malformation / bone / incomplete ossification.
Setting [28] is: group: maternal, systemic / in life observation / body weight / body weight gain + systemic / in life observation / food consumption / food consumption.
The mark [29] stands for this setting: group: maternal, systemic / in life observation / body weight / body weight gain + systemic / in life observation / food consumption / food consumption + ….
The mark [30] stands for this setting: systemic / pathology microscopic / kidney / pigmentation.
The mark [31] stands for this setting: systemic / pathology microscopic / kidney / pigmentation + systemic / clinical chemistry / cholesterol / cholesterol + systemic / clinical ….

A word on the LOAEL: it is the lowest tested level that showed an adverse finding. Usually NOAEL stands for the highest dose or exposure tested at which no adverse effect was seen. Regarding `ClC(Cl)=C(c1ccc(Cl)cc1)c1ccc(Cl)cc1` [p,p'-DDE], in the data set on mouse [1], the LEL turned out to be 22.2 mg/kg/day, the lowest-observed-adverse-effect level (LOAEL) was greater than 39.1 mg/kg/day, the NEL is less than 22.2 mg/kg/day and the NOAEL was no less than 39.1 mg/kg/day. In the data set with rat [2] (setting [16]), this molecule came in with an LOAEL of 12.1 mg/kg/day and an NOAEL of less than 12.1 mg/kg/day. Further, in the data set with rat [2] (setting [17]), the LEL was 12.1 mg/kg/day and the NEL was less than 12.1 mg/kg/day.
For `O=C1CCC(N2C(=O)c3ccccc3C2=O)C(=O)N1` (stereo not drawn) [Thalidomide], in the data set with rat [3], the LEL stood at 100 mg/kg/day, the LOAEL was greater than 100 mg/kg/day, the NEL is less than 100 mg/kg/day and the NOAEL was no less than 100 mg/kg/day.
In the data set on mouse [4] (setting [18]), `Cc1cc(C)c(N)cc1C` [2,4,5-Trimethylaniline] gave an LOAEL of 7.5 mg/kg/day and an NOAEL of less than 7.5 mg/kg/day. For the same molecule, in the data set with mouse [4] (setting [19]), the LEL was 7.5 mg/kg/day and the NEL is less than 7.5 mg/kg/day. Also, in the data set with rat [5] (setting [18]), the lowest observed adverse effect level (LOAEL) is 10 mg/kg/day and the NOAEL is less than 10 mg/kg/day. Besides, in the data set with rat [5] (setting [20]), the LEL turned out to be 10 mg/kg/day and the NEL was less than 10 mg/kg/day.
As to `O=C(NC(=O)c1c(F)cccc1F)Nc1cc(Cl)c(OC(F)(F)C(F)C(F)(F)F)c(Cl)c1F` (stereo not drawn) [Noviflumuron], in the data set with dog [6], the LEL was determined as 113 mg/kg/day, the LOAEL is 113 mg/kg/day, the NEL was determined as 1.06 mg/kg/day and the NOAEL came to 1.06 mg/kg/day.
Regarding `S=C([S-])NCCNC(=S)[S-].S=C([S-])NCCNC(=S)[S-].[Mn+2].[Zn+2]` [Mancozeb], the LEL with dog [7] (setting [21]) was 7.26 mg/kg/day; in the data set with dog [8], 28.6 mg/kg/day; in the data set on rat [9] (total), 17.8 mg/kg/day; with rat [10] (systemic / clinical chemistry / thyroid stimulating hormone (thyrotropin) (tsh) / thyroid stimulating hormone (=thyrotropin) (tsh)), 2.33 mg/kg/day; with rat [11] (setting [25]), 512 mg/kg/day; in the data set on rat [11] (setting [26]), 128 mg/kg/day. Besides, the LEL in the data set with rat [12] (setting [27]) turned out to be 2 mg/kg/day; with rat [12] (setting [28]), 128 mg/kg/day; in the data set on mouse [13] it was 167 mg/kg/day; with rat [14], 30 mg/kg/day; in the data set on rat [15] (setting [30]), 7.42 mg/kg/day. The LOAEL with dog [7] (setting [21]) is 7.26 mg/kg/day; in the data set on dog [8] it was 28.6 mg/kg/day; with rat [9] (total), 17.8 mg/kg/day; in the data set on rat [10] (setting [24]) it was 30.9 mg/kg/day; with rat [11] (setting [25]) it was 512 mg/kg/day; with rat [11] (setting [26]), 128 mg/kg/day. The LOAEL with rat [12] (group: developmental, developmental / developmental malformation / bone / incomplete ossification + developmental / developmental malformation / brain / [other]) is 8 mg/kg/day; in the data set with rat [12] (setting [28]) it was 128 mg/kg/day; in the data set on mouse [13] it was 167 mg/kg/day; in the data set on rat [14], 30 mg/kg/day; with rat [15] (setting [30]), 7.42 mg/kg/day. Moreover, the NEL amounted to 1.75 mg/kg/day in the data set with dog [7] (setting [22]); 2.98 mg/kg/day in the data set with dog [8]; 9.24 mg/kg/day with rat [9] (setting [23]); 0.77 mg/kg/day with rat [10] (setting [24]); 128 mg/kg/day in the data set on rat [11] (setting [25]); 32 mg/kg/day in the data set with rat [11] (setting [26]). Further, the NEL in the data set on rat [12] (setting [27]) was less than 2 mg/kg/day; in the data set on rat [12] (setting [29]), 32 mg/kg/day; in the data set on mouse [13], 18.1 mg/kg/day; in the data set on rat [14], 5 mg/kg/day; in the data set with rat [15] (setting [31]), 3.49 mg/kg/day. The no observed adverse effect level (NOAEL) in the data set on dog [7] (setting [22]) came out at 1.75 mg/kg/day; with dog [8], 2.98 mg/kg/day; in the data set with rat [9] (setting [23]), 9.24 mg/kg/day; in the data set with rat [10] (setting [24]) it was 4.38 mg/kg/day; in the data set on rat [11] (setting [25]), 128 mg/kg/day; in the data set with rat [11] (setting [26]), 32 mg/kg/day. Also, the no observed adverse effect level (NOAEL) came out at 2 mg/kg/day in the data set on rat [12] (group: developmental, developmental / developmental malformation / bone / incomplete ossification + developmental / developmental malformation / brain / [other…); 32 mg/kg/day in the data set with rat [12] (setting [29]); 18.1 mg/kg/day in the data set on mouse [13]; 5 mg/kg/day in the data set on rat [14]; 3.49 mg/kg/day in the data set on rat [15] (setting [31]).
